Each structure is given as a SMILES string. Where a name gives a salt, the structure may show the parent alone.

In the assay the test system is Mycobacterium tuberculosis H37Rv. Description: Mycobacterium tuberculosis H37Rv Inhibition Assay. The assay is classed as cell-based. Particulars: ATCC 25618 / H37Rv, H37Rv strain (ATCC25618), resazurin fluorescence readout. The protocol:
The measurement of the minimum inhibitory concentration (MIC) for each tested compound was performed in 96 wells flat-bottom, polystyrene microtiter plates. Ten two-fold drug dilutions in neat DMSO starting at 400 μM were performed. Five μl of these drug solutions were added to 95 μl of Middlebrook 7H9 medium. (Lines A-H, rows 1-10 of the plate layout). Isoniazid was used as a positive control, 8 two-fold dilution of Isoniazid starting at 160 μgml^−1 was prepared and 5 μl of this control curve was added to 95 μl of Middlebrook 7H9 (Difco catalogue Ref. 271310)+ADC medium (Becton Dickinson Catalogue Ref. 211887). (Row 11, lines A-H). Five μl of neat DMSO were added to row 12 (growth and Blank controls).
The inoculum was standardised to approximately 1×10^7 cfu/ml and diluted 1 in 100 in Middlebrook 7H9+ADC medium and 0.025% Tween 80 (Sigma P4780), to produce the final inoculum of H37Rv strain (ATCC25618). One hundred μl of this inoculum was added to the entire plate but G-12 and H-12 wells (Blank controls). All plates were placed in a sealed box to prevent drying out of the peripheral wells and they were incubated at 37° C. without shaking for six days. A resazurin solution was prepared by dissolving one tablet of resazurin (Resazurin Tablets for Milk Testing; Ref 330884Y VWR International Ltd) in 30 ml sterile PBS (phosphate buffered saline). 25 μl of this solution was added to each well. Fluorescence was measured (Spectramax M5 Molecular Devices, Excitation 530 nm, Emission 590 nm) after 48 hours to determine the MIC value.
(Resazurin is reduced to fluorescent resorufin, in cell work by metabolically active cells.)
In the case of `O=C1CSc2ccc(CNC3CCN(CC4CCn5c(=O)ccc6ccc(F)c4c65)CC3)nc2N1` (centres unmarked) [Example 10, 10-fluoro-1-[(4-{[(3-oxo-3,4-dihydro-2H-pyrido[3,2-b][1,4]thiazin-6-yl)methyl]amino}-1-piperidinyl)methyl]-2,3-dihydro-1H,5H-pyrido[3,2,1-ij]quinolin-5-one dihydrochloride], the MIC is no more than 1.8 µg/mL.

`O=C1COc2ccc(CNC3CCN(CC4CCn5c(=O)ccc6ccc(F)c4c65)CC3)nc2N1` (centres unmarked) [Example 11, 10-fluoro-1-[(4-{[(3-oxo-3,4-dihydro-2H-pyrido[3,2-b][1,4]oxazin-6-yl)methyl]amino}-1-piperidinyl)methyl]-2,3-dihydro-1H,5H-pyrido[3,2,1-ij]quinolin-5-one dihydrochloride]: the minimal inhibitory concentration (MIC) is no more than 1.8 µg/mL.

With `O=C1COc2ccc(CN[C@H]3CCN(CC4CCn5c(=O)ccc6ccc(F)c4c65)C[C@H]3O)nc2N1` (stereo partly drawn) [Example 17, 10-fluoro-1-[((3R,4S)-3-hydroxy-4-{[(3-oxo-3,4-dihydro-2H-pyrido[3,2-b][1,4]oxazin-6-yl)methyl]amino}-1-piperidinyl)methyl]-2,3-dihydro-1H,5H-pyrido[3,2,1-ij]quinolin-5-one dihydrochloride], the MIC is no more than 1.8 µg/mL.

Consider `O=C1COc2ccc(CNC3CCN(CC4CCn5c(=O)sc6ccc(F)c4c65)CC3)nc2N1` (centres unmarked) [Example 32, 7-Fluoro-6-[(4-{[(3-oxo-3,4-dihydro-2H-pyrido[3,2-b][1,4]oxazin-6-yl)methyl]amino}-1-piperidinyl)methyl]-5,6-dihydro-4H-[1,3]thiazolo[5,4,3-ij]quinolin-2-one dihydrochloride], for which the MIC is no more than 1.8 µg/mL.

`O=C1COc2ccc(CNC3CCN(CC4CCN5C(=O)COc6ccc(F)c4c65)CC3)nc2N1` (centres unmarked) [Example 37, 8-Fluoro-7-[(4-{[(3-oxo-3,4-dihydro-2H-pyrido[3,2-b][1,4]oxazin-6-yl)methyl]amino}-1-piperidinyl)methyl]-6,7-dihydro-5H-[1,4]oxazino [2,3,4-ij]quinolin-3(2H)-one dihydrochloride] came in with a minimal inhibitory concentration (MIC) of no more than 1.8 µg/mL.

The MIC is the least concentration at which growth counts as inhibited. A high value points to a less susceptible organism.
